In US9474749B2 (priority 2004, dated 2016):
pIC50: −log10 of the molar value.

What was measured:
[1] = tested on: Mytilus edulis pedal ganglia; assay: Endogenous morphine levels in excised pedal ganglia incubated in vitro (HPLC, RIA); assay type: cell-based
[2] = tested on: Mytilus edulis pedal ganglia; assay: Ganglionic morphine levels after injection into the foot of intact animals; conditions: one hour after injection into the foot
Method: For in vivo precursor injection experiments, the animal's foot was injected with either reticuline or L-DOPA (0.1 and 1 μg/injection, respectively). Chemicals were injected by BD 1 cc syringes with 26 G needles. Each needle was inserted into that base of the foot just above the pedal ganglia.
For in vivo treatments, the animal's foot (20 animals per treatment) was injected with tyrosine (10^−5 M), tyramine (10^−5 M), or saline. Other animals were exposed to the enzyme inhibitors AMPT or quinidine alone or immediately following the respective foot injection. […] All chemicals were purchased from Sigma (St. Louis, Mo.).

[3] = molecular target: mu3 opiate receptor (Mytilus edulis, UniProt A0A8S3SM58); assay: Displacement of 3H-dihydromorphine, pedal ganglia membrane suspension; assay type: binding
Method: An additional 100 excised pedal ganglia and the human monocytes were separately washed and homogenized in 50 volumes of 0.32 M sucrose, pH 7.4, at 4° C. using a Brinkmann polytron (30 seconds, setting no. 5). The crude homogenate was centrifuged at 900×g for 10 minutes at 4° C., and the supernatant was reserved on ice. The whitish crude pellet was resuspended by homogenization (15 seconds, setting no. 5) in 30 volumes of 0.32 M sucrose/Tris-HCl buffer, pH 7.4, and centrifuged at 900×g for 10 minutes. The extraction procedure was repeated one more time, and the combined supernatants were centrifuged at 900×g for 10 minutes. The resulting supernatants (S1′) were used immediately. […] The P2 pellet was then re-suspended with a Dounce hand-held homogenizer (10 strokes) in 100 volumes of buffer. Binding analysis was then performed on the cell membrane suspensions.
Aliquots of membrane suspension (0.2 mL, 0.12 mg of membrane protein) were incubated in triplicate at 22° C. for 40 minutes with the appropriate radiolabeled ligand in the presence of dextrorphan (10 mM) or levorphanol (10 mM) in 10 mM Tris-HCl buffer, pH 7.4, containing 0.1% BSA and 150 mM KCl. […] The filters were rapidly washed with 2.5 mL aliquots of the incubation buffer (4° C.), containing 2% polyethylene glycol 6000 (Baker). […] Protein concentration was determined in membrane suspensions (prepared in the absence of BSA).

[4] = tested on: NCI-H295R cells; assay: Morphine production by NCI-H295R cells (RIA); assay type: cell-based, human; conditions: one half million cells, 100 ng of reticuline, 24 hours; control about 9.6±3.5
Description: Human cells (NCI-H295R) were adapted from the NCI-H295 pluripotent adrenocortical carcinoma cell line (ATCC CRL-10296), which is from a carcinoma of the adrenal cortex. The original cells were adapted to a culture medium that decreased the population doubling time from 5 days to 2 days. While the original cells grew in suspension, the adapted cells were selected to grow in a monolayer. These cells retained the ability to produce adrenal androgens and were responsive to angiotensin II and potassium ions. To propagate these cells, the culture medium was a 1:1 mixture of Dulbecco's modified Eagle's medium and Ham's F12 medium containing 15 mM HEPES, 0.00625 mg/mL insulin, 0.00625 mg/mL transferrin, 6.25 ng/mL selenium, 1.25 mg/mL bovine serum albumin, and 0.00535 mg/mL linoleic acid, 97.5%; Nu-Serum I, 2.5%. See, e.g., Rainey et al., Mol. Cell. Endocrinol., 100:45-50 (1994); Gazdar et al., Cancer Res., 50:5488-5496 (1990); and Bird et al., Endocrinology, 133:1555-1561 (1993)).
The cells were subcultured in 6 well cell culture cluster (Corning Inc.) 24 hours before the experiment. The amount of cells was determined by Microscope (Nickon inc). Various amounts of reticuline were added to the cells, and the cells were cultured with an NAPCO incubator. The incubation was terminated after 24 hours by adding 10 NHCl.

[5] = tested on: pedal ganglia; assay: NO release from excised pedal ganglia (NO-selective microprobe); assay type: cell-based, Mytilus edulis
Method: For the nitric oxide assay, ten pedal ganglia (per determination) dissected from M. edulis were bathed in 1 mL sterile phosphate buffered saline (PBS). […] For the opiate receptor antagonist experiments, ganglia were pretreated with naloxone for 10 minutes prior to reticuline addition. NO release was monitored with an NO-selective microprobe manufactured by World Precision Instruments (Sarasota, Fla.). The sensor was positioned approximately 100 μm above the respective tissue surface. […] The NO detection system was calibrated daily. The probe was allowed to equilibrate for 10 minutes in the incubation medium free of tissue before being transferred to vials containing the ganglia for another 5 minutes. Manipulation and handling of the ganglia was only performed with glass instruments. Data was acquired using the Apollo-4000 free radical analyzer (World Precision Instruments, Sarasota, Fla.). The experimental values were then transferred to Sigma-Plot and -Stat (Jandel, Calif.) for graphic representation and evaluation.

[6] = molecular target: T1, mu3 opiate receptor (Homo sapiens, UniProt P35372); assay: biochemical; assay type: binding; conditions: read-out: Monocytes IC50, displacement of 3H-dihydromorphine; mean +/− S.E.M., three experiments
T1 construct: An additional 100 excised pedal ganglia and the human monocytes were separately washed and homogenized; host or cells: human monocytes
Method: For the nitric oxide assay, ten pedal ganglia (per determination) dissected from M. edulis were bathed in 1 mL sterile phosphate buffered saline (PBS). […] NO release was monitored with an NO-selective microprobe manufactured by World Precision Instruments (Sarasota, Fla.). The sensor was positioned approximately 100 μm above the respective tissue surface. […] The NO detection system was calibrated daily. The probe was allowed to equilibrate for 10 minutes in the incubation medium free of tissue before being transferred to vials containing the ganglia for another 5 minutes. Manipulation and handling of the ganglia was only performed with glass instruments. Data was acquired using the Apollo-4000 free radical analyzer (World Precision Instruments, Sarasota, Fla.). The experimental values were then transferred to Sigma-Plot and -Stat (Jandel, Calif.) for graphic representation and evaluation.
An additional 100 excised pedal ganglia and the human monocytes were separately washed and homogenized in 50 volumes of 0.32 M sucrose, pH 7.4, at 4° C. using a Brinkmann polytron (30 seconds, setting no. 5). The crude homogenate was centrifuged at 900×g for 10 minutes at 4° C., and the supernatant was reserved on ice. The whitish crude pellet was resuspended by homogenization (15 seconds, setting no. 5) in 30 volumes of 0.32 M sucrose/Tris-HCl buffer, pH 7.4, and centrifuged at 900×g for 10 minutes. The extraction procedure was repeated one more time, and the combined supernatants were centrifuged at 900×g for 10 minutes. The resulting supernatants (S1′) were used immediately. […] The P2 pellet was then re-suspended with a Dounce hand-held homogenizer (10 strokes) in 100 volumes of buffer. […]
Aliquots of membrane suspension (0.2 mL, 0.12 mg of membrane protein) were incubated in triplicate at 22° C. for 40 minutes with the appropriate radiolabeled ligand in the presence of dextrorphan (10 mM) or levorphanol (10 mM) in 10 mM Tris-HCl buffer, pH 7.4, containing 0.1% BSA and 150 mM KCl. […] Protein concentration was determined in membrane suspensions (prepared in the absence of BSA).

[7] = tested on: human white blood cells / PMNs; assay: Morphine production by human WBC and PMNs (HPLC, RIA); assay type: cell-based
[8] = tested on: NMDA NR2B Subunit; assay: NMDA NR2B subunit mRNA expression (RT-PCR); assay type: cell-based, human
Method: (§1) Isolation of total RNA was performed via RNA MiniPrep Kit (QIAGEN). Concentration of RNA was determined via GeneQuant II Spectrophotometer (Pharmacia Biotech) by multiplying A260 value with dilution factor and nucleic acid constant (0.04). Agarose gel electrophoresis (1%) was used to check for RNA quality.
(§2) RT and PCR reactions were performed in GeneAmp PCR System 9700 (Applied Biosystems) using reverse transcriptase and Taq DNA Polymerase. Forward and reverse gene specific-primers for various subunits of the 20S proteasome and immunoproteasome were either obtained from the literature or designed through Primer Express Software 2.0 (Applied Biosystems) (Table 4). NMDA receptor subunit primers were also designed (Table 4). NMDA receptor expression was used as a marker of neurodegenerative disease.
(§3) All primers were optimized for annealing temperatures and cycles (Table 5). Gel electrophoresis (2% agarose, 0.01% ethidium bromide) was performed and analyzed using a UV transilluminator (UVP) and GelPro Analyzer Software (Applied Biosystems). Relative band intensity was normalized with β-Actin reference gene.

[9] = tested on: 20S proteasome; assay: Activity of the whole 20S proteasome (fluorometric); assay type: cell-based, human; conditions: rotenone 30 nM; morphine 5 μM
Method: (§4) Proteasome function assays were performed in an effort to examine the modulation in levels of protein degradation. Fluorometric assays were performed for both the chymotrypsin activity of the 26S proteasome as well as activity of the whole 20S proteasome using procedures adapted from Kotamraju et al. (Proc. Natl. Acad. Sci. USA, 100:10653-8 (2003)). Excitation at 365 nm and emission at 460 nM of the fluorogenic compound, […] (AMC), were measured using a Spectrofluoroscence Detector (McPherson).

[10] = tested on: SK-N-SH neuroblastoma cell line; assay type: cell-based, human
Method: Cell viability was determined via Trypan blue exclusion. An inverted light microscope (Nikon) with a phase-contrast filter was used to observe the cells. Pictures of the cells were taken via a digital camera (Optronix) attached to the microscope ocular. Images were uploaded onto ImagePro Plus Software (Applied Biosystems), where cell viability was calculated based on both the number of cells covering the field and the cells that present as dead from the stain. In addition, ImagePro Plus was used for determining cellular morphology. The area and perimeter were found and used in the formula (4π*Area)/(Perimeter)^2, resulting in a value between 0 (a straight line) and 1 (a perfect circle).

[11] = tested on: NMDA NR1 Subunit; assay: NMDA NR1 subunit mRNA expression (RT-PCR); assay type: cell-based, human
Method: as §1, §2, §3

[12] = tested on: 26S proteasome; assay: Chymotrypsin activity of the 26S proteasome (fluorometric); assay type: cell-based, human; conditions: rotenone 30 nM; morphine 5 μM; control 236±4.8
Method: as §4

[13] = tested on: 20S Proteasome X (β5) Subunit; assay: 20S proteasome X subunit protein (Western blot); assay type: cell-based, human; conditions: rotenone
Method: (§5) To determine protein concentrations, protein was harvested using the following buffer: 20 mM Hepes (Sigma), 100 mM NaCl (Fisher), 10 mM NaF (Sigma), 1% Triton X-100 (Sigma), 1 mM sodium orthovanadate (Sigma), 10 mM EDTA (Sigma), pH 7.4, 0.1% protease inhibitor cocktail (Sigma), and ddH2O. Homogenized samples were spun in an ultracentrifuge at 10,000G for 20 minutes at 4° C. Concentration was determined via the Bradford assay (Bio-Rad) using bovine serum albumin (BSA, Sigma) for standard curve. To eliminate any potential pipetting error, samples and standards were read in triplicate.
(§6) Western blotting was performed as follows. SDS-polyacrylamide gels (12% for separation and 5% for stacking) were made using the Mini Trans-Blot Cell (Bio-Rad). Based on the concentrations from the protein concentration determination assay, the proteins were mixed with 2× Protein Loading Buffer (0.2M DTT) for a final volume of 24 μL. Tris-Glycine Electrophoresis Buffer (1×) was used in SDS-PAGE, and proteins were separated at constant amperage (35 mA).
(§7) Subsequent protein transfer to a nitrocellulose membrane involved use of the Mini Trans-Blot Cell apparatus run at constant voltage (100V) for 40 minutes. […]
(§8) Substrate (Pierce) was administered as a means of stimulating chemiluminescence. Blots were developed and subsequently analyzed for relative band intensity using Gel-Pro software (Applied Biosystems).

[14] = tested on: SH-SY5Y cells; assay: M6G-induced NO release from SH-SY5Y cells; assay type: cell-based, human; conditions: 1 hour pre-treatment, 1 μM M6G
Method: The production of NO in SH-SY5Y cells was detected using the Apollo 4000 Free Radical Analyzer (World Precision Instruments). SH-SY5Y cells were trypsinized and cultured in a 6-well plate for 48 hours. An L-shaped amperometric NO-specific probe was connected to the Apollo Analyzer and calibrated using a SNAP+CuCl2 solution, which releases calculable amounts of NO. […] At the end of the treatment time-point, the media was removed and replaced with PBS warmed in a 37° C. bath, which is non-reactive with the probe. The probe was inserted about 1.5 mm above the cells and allowed to equilibrate for 5 minutes. […] The probe was monitored in real-time for the production of NO “spikes.” NO data was recorded using Free Radical Analyzer (World Precision Instruments). Cells were then discarded.

[15] = tested on: mu3 opiate receptor; conditions: 10^−6 M CTOP 10 minutes prior
Method: In addition, the cells were either incubated with or without 10^−6 M CTOP 10 minutes prior to adding M6G.

[16] = tested on: human saphenous veins; assay: NO release from human saphenous veins; conditions: 10^−6 M CTOP 10 minutes before morphine
[17] = tested on: 20S Proteasome LMP7 Subunit (β5i); assay: LMP7 immunoproteasome subunit mRNA expression (RT-PCR); assay type: cell-based, human; conditions: IFNγ 20 ng/mL, 24 hours; control 0.29±0.01
Method: as §1, §2, §3

[18] = tested on: Immunoproteasome LMP7 (β5i) Subunit; assay: LMP7 polypeptide expression (Western blot); assay type: cell-based, human; conditions: IFNγ
Method: as §5, §6, §7, §8

[19] = tested on: SK-N-SH neuroblastoma cell line; assay: Cellular morphology (Form Factor) of neuroblastoma cells; assay type: cell-based, human; conditions: IFNγ treatment; control 0.54±0.02

Sequence of mu3 opiate receptor (Mytilus edulis, UniProt A0A8S3SM58) (A0A8S3SM58 1-388): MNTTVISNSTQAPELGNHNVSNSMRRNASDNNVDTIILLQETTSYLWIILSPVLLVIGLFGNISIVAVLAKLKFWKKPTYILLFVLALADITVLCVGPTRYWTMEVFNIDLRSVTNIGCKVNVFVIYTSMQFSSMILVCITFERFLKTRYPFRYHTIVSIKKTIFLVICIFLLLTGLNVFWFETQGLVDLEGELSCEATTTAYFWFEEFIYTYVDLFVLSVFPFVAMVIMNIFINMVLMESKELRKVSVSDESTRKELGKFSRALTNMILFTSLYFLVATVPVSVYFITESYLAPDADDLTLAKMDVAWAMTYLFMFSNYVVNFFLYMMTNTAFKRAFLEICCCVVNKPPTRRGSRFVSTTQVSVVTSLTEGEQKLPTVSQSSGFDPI
T1 sequence (P35372 1-314 isoform P35372-14): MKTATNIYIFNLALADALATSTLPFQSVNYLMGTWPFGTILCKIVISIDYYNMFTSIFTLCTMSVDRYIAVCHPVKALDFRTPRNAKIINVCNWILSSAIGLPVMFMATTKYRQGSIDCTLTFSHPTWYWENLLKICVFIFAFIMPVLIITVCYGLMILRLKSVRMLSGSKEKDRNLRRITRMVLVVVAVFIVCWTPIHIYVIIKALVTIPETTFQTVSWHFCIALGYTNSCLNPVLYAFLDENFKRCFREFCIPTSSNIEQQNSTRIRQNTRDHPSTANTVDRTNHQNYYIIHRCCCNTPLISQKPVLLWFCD

COc1ccc(C[C@H]2c3cc(O)c(OC)cc3CCN2C)cc1O [Reticuline, reticuline]
endogenous morphine level in ganglia (HPLC) ([1]; 50 ng of reticuline, 1 hour, control 1.43±0.41): 6.7±0.7 ng/mg tissue wet weight | morphine production in mantle tissues ([1]; 50 ng of reticuline, mantle tissues): did not produce detectable morphine | morphine per mg ganglion ([1]; 100 ng of reticuline): about 5.0±0.47 ng morphine per mg ganglion | ganglionic morphine level (RIA) ([1]; 100 ng of reticuline, one hour, control 1.33±0.61): about 14.53±4.6 ng/mg | ganglionic morphine level (HPLC, FIG. 1 legend) ([1]; 0.5 μg of reticuline, 1 hour): 5 ng/mg morphine tissue wet weight | ganglionic morphine levels after exposure ([1]; 10^−6 M (FIG. 20)): significantly enhanced morphine levels | ganglionic morphine levels versus control ([1]; 50 and 100 ng, 60 minutes, in vitro): significantly higher | pedal ganglionic morphine levels after injection [2]: significantly increased pedal ganglionic morphine levels | affinity for the mu3 opiate receptor [3]: does not exhibit an affinity | pIC50 ([3]; read-out: Pedal Ganglia IC50, displacement of 3H-dihydromorphine, mean +/− S.E.M., three experiments): < 6.00 | morphine produced by cells [4]: about 28±5.4 ng | NO Peak Level ([5]; ligand 10^−7 M): 17.6 ± 3.8 nM | NO Peak Time ([5]; ligand 10^−7 M): 9.2 ± 1.5 min | delay before ganglionic NO release ([5]; reticuline 10^−7 M): three-minute delay | duration of ganglionic NO release ([5]; reticuline 10^−7 M, morphine 10^−6 M): 17 min | pIC50 [6]: < 6.00 | WBC morphine concentrations versus untreated cells ([7]; P<0.001): significantly increased WBC morphine concentrations | Morphine levels in media after the cells were removed ([7]; PMNs 3×10^6 cells, THP 100 μg, reticuline 50 μg, L-DOPA 100 μg, L-tyrosine 100 μg): 2.112 ± 0.33 | morphine concentrations in WBC ([7]; one-hour treatment, control 12.33±5.64): 136.04±8.71 pg/million cells

C=C(C)[C@H]1Cc2c(ccc3c2O[C@@H]2COc4cc(OC)c(OC)cc4[C@@H]2C3=O)O1 [Rotenone]
NR2B expression ([8]; rotenone 30 nM (LD50), control 0.98±0.02): 1.22±0.08 AU | NR2B expression ([8]; rotenone 40 nM): 1.49±0.02 AU | 20S proteasome activity [9]: Significant increase in activity of the 20S proteasome | LD50, cellular death of neuroblastoma cells ([10]; human): 30 nM | confluency ([10]; rotenone 30 nM, 48-hour incubation): about 45% | NR1 expression ([11]; rotenone 30 nM (LD50), control 1.57±0.072): 1.22±0.010 AU | NR1 expression ([11]; rotenone 40 nM): 1.21±0.028 AU | activity of the chymotrypsin functional 26S active site [12]: 221 ± 4.8 pM | X subunit protein band intensity [13]: 182 AU

Aβ1-42: β-amyloid peptide (Aβ) 1-42
M6G-induced NO release after Aβ1-42 pre-treatment [14]: dose-dependent decrease in NO release

CTOP
effect of CTOP on M6G-induced mu3 expression [15]: blocked by CTOP pre-treatment | morphine-induced NO release after CTOP pre-treatment [16]: no NO release was detected

IFNγ: interferon used to simulate an immune response
LMP7 mRNA expression [17]: 0.93±0.06 | LMP7 polypeptide expression [18]: caused an increase in LMP7 polypeptide expression | Form Factor (FF) [19]: 0.76±0.02
